Key:
SOS1 and KRAS G12D = SOS1 and KRAS G12D (Homo sapiens (Human), UniProt Q07889); test: KRAS::SOS1 AlphaScreen Binding Assay; conditions: SOS1 (564-1049), KRAS G12D (1-169), GDP
Text: a. KRAS::SOS1 AlphaScreen Binding Assay
Low IC50 values of given compounds are indicative of high potency of the SOS1 inhibitor compounds in this assay setting.
• GST-TEV-SOS1 (564-1049) and His-TEV-Avi-KRAS G12D (1-169) are purchased from Viva Biotech (Shanghai) Ltd. • GDP (Sigma, Cat. G7127) • AlphaLISA Glutathione Acceptor Beads (PerkinElmer, Cat. AL109C) • AlphaScreen Streptavidin Donor Beads (PerkinElmer, Cat. 6760002S) • Assay plates: ProxiPlate-384 Plus, White 384-shallow well Microplate (PerkinElmer, Cat. 6008280)
SOS1 inhibitor compounds are diluted to a final start concentration of […]. Serial dilutions of compounds are made using Tecan D300e Digital Dispenser in 9 concentrations with serial 1:3 dilutions. 100 nL of compound solution is transferred to the 384-well assay plate per well, covering a range between 1 μM and 0.15 nM minimum in duplicate. 10 nM (final assay concentration) KRAS G12D, 5 nM (final assay concentration) SOS1 and 10 μM (final assay concentration) GDP are mixed in assay buffer, and 5 μL of KRAS::SOS1 GDP mix is added into the assay plate to the 100 nL of compound solution (final dilution in the assay 1:100, final DMSO concentration 1%). After a 30 min incubation, AlphaLISA Glutathione Acceptor Beads and AlphaScreen Streptavidin Donor Beads are mixed in assay buffer at a concentration of 5 µg/mL (final assay concentration), and 5 μL of bead mix is added into the assay plate. Plates are kept at room temperature in a darkened incubator for 3 h. After a 3 h incubation, the signal is determined using Envision (PerkinElmer). The excitation wavelength is 680 nm, and emission 615 nm. IC50 values are calculated and analyzed using GraphPad Prism.

NCI-H358 = test: Cell proliferation assay, 3D, CellTiter-Glo 3D; type: cell-based, human; conditions: Homo sapiens, 72 h; NCI-H358 (KRAS G12C), 3D ultra-low attachment, 3 days; read-out: anit-prolif. H358 IC50
Method: b. Cell Proliferation Assay
Low IC50 values are indicative of high potency of the compounds in this assay setting.
Cell proliferation assay is performed in three-dimensional (3D) ultra-low conditions with the human cell line NCI-H358, a human non-small cell lung cancer (NSCLC) cell line with a KRAS G12C mutation.
• 96-well Clear Round Bottom Ultra-Low Attachment Microplate (Corning, Cat. 7007) • 96-well Flat Clear Bottom White Polystyrene TC-treated Microplates (Corning, Cat. 3610) • RPMI-1640 Medium (Gibco, Cat. 22400105) • Fetal Bovine Serum (FBS) (Gibco, Cat. 10099141C) • 0.25% Trypsin-EDTA (Gibco, Cat. 25200056) • Penicillin-Streptomycin (Gibco, Cat. 15140122) • CellTiter-Glo 3D Cell Viability Assay (Promega, Cat. G9683)
NCI-H358 cells (ATCC, Cat. CRL-5807) are grown in cell culture flasks using RPMI medium supplemented with 10% FBS. Cells are incubated at 37° C. and 5% C02 in a humidified atmosphere, with sub-cultivation performed twice a week. Cells are trypsinized, counted and plated in 96-well ultra-low adhesion plates for 3D cell viability determination. The day after plating, serial dilutions of SOS1 inhibitor compounds are made using Tecan D300e Digital Dispenser to evaluate a concentration-dependent effect on cell viability. The concentration of the test compounds covers a range between 5 μM and 0.76 nM with serial 1:3 dilutions in 9 concentrations. 0.5 μL serial dilutions of the compounds are added in duplicates. 3 days later, the CellTiter-Glo 3D Cell Viability Assay is used to measure cell viability effects of SOS1 inhibitor compounds in 3D format. Luminescent intensity is determined using Envision (PerkinElmer). Data is analyzed and IC50 values are calculated using GraphPad Prism.

SOS1 and KRAS G12D, sequence (Q07889 564-1049, stated change not applied): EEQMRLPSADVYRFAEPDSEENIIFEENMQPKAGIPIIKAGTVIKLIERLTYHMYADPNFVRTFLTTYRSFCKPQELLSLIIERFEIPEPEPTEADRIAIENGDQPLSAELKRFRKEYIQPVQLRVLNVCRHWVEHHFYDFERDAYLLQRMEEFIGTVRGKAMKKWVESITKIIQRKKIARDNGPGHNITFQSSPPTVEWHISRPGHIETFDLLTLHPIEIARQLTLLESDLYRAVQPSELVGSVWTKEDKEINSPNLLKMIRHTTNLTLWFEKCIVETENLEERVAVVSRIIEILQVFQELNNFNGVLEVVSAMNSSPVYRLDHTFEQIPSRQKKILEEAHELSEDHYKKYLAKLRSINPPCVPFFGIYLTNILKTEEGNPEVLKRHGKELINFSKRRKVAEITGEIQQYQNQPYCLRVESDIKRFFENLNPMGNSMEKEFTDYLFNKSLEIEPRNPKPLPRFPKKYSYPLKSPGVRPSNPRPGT

Row | Structure (SMILES) | IC50 (SOS1 and KRAS G12D) [nM] | IC50 (NCI-H358) [nM]
1 | Cc1nc(N[C@H](C)c2cccc(C(F)F)c2F)c2cn(N3CCOCC3)c(=O)c(-c3cc(F)cc(C#N)c3)c2n1 [Example 64] | 15 to 150 | 500 to 1000
2 | Cc1nc(N[C@H](C)c2cccc(C(F)F)c2F)c2cn(N3CCN(C(=O)CO)CC3)c(=O)cc2n1 [Example 13, 4-[[(1R)-1-[3-(difluoromethyl)-2-fluoro-phenyl]ethyl]amino]-6-[4-(2-hydroxyacetyl)piperazin-1-yl]-2-methyl-pyrido[4,3-d]pyrimidin-7-one] | ≤ 15 | 500 to 1000
3 | Cc1nc(N[C@H](C)c2cccc(C(F)F)c2F)c2cn(N3CCOCC3)c(=O)c(-c3cccnc3)c2n1 [Example 45] | ≤ 15 | ≤ 100
4 | Cc1nc(N[C@H](C)c2cccc(C(F)F)c2F)c2cn(N(C)C)c(=O)cc2n1 [Example 34, 4-[[(1R)-1-[3-(difluoromethyl)-2-fluoro-phenyl]ethyl]amino]-6-(dimethylamino)-2-methyl-pyrido[4,3-d]pyrimidin-7-one] | ≤ 15 | 100 to 500
5 | Cc1nc(N[C@H](C)c2cccc(C(F)F)c2F)c2cn(-n3cnnc3)c(=O)c(F)c2n1 [Example 87] | 150 to 1000 | 
6 | Cc1nc(N[C@H](C)c2cccc(C(F)F)c2F)c2cn(N3CCOCC3)c(=O)c(-c3cnc4nccn4c3)c2n1 [Example 84] | ≤ 15 | 
7 | Cc1nc(N[C@H](C)c2cccc(C(F)F)c2F)c2cn(N3CCOCC3)c(=O)c(-c3ccccn3)c2n1 [Example 74, (R)-4-((1-(3-(difluoromethyl)-2-fluorophenyl)ethyl)amino)-2-methyl-6-morpholino-8-(pyridin-2-yl)pyrido[4,3-d]pyrimidin-7(6H)-one] | ≤ 15 | 100 to 500
8 | Cc1nc(N[C@H](C)c2cccc(C(F)F)c2F)c2cn(N3CCOCC3)c(=O)c(-c3cncnc3)c2n1 [Example 52] | ≤ 15 | ≤ 100
9 | Cc1nc(N[C@H](C)c2cccc(C(F)F)c2F)c2cn(N3CCOCC3)c(=O)c(-c3cnc(C#N)nc3)c2n1 [Example 66] | ≤ 15 | ≤ 100
10 | Cc1nc(N[C@H](C)c2cccc(C(F)F)c2F)c2cn(N3CCOCC3)c(=O)c(-c3ccccc3)c2n1 [Example 47] | ≤ 15 | 100 to 500
11 | Cc1nc(N[C@H](C)c2cccc(C(F)(F)CO)c2)c2cn(N3CCOCC3)c(=O)cc2n1 [Example 18] | ≤ 15 | 500 to 1000
12 | Cc1nc(N[C@H](C)c2cccc(C(F)(F)CO)c2)c2cn(N3CCOCC3)c(=O)c(F)c2n1 [Example 32] | ≤ 15 | ≤ 100
13 | Cc1nc(N[C@H](C)c2cccc(C(F)F)c2F)c2cn(N3CCOCC3)c(=O)c(-c3ccc(N)nc3)c2n1 [Example 48] | ≤ 15 | 100 to 500
14 | Cc1nc(N[C@H](C)c2cccc(C(F)(F)F)c2F)c2cn(N3CCOCC3)c(=O)cc2n1 [Example 19] | ≤ 15 | 100 to 500
15 | Cc1nc(NC(C)c2cccc(C(F)F)c2)c2cn(N3CCOCC3)c(=O)cc2n1 (centres unmarked) [Example 25] | 15 to 150 | 100 to 500
16 | Cc1nc(N[C@H](C)c2cccc(C(F)F)c2F)c2cn(N3CCOCC3)c(=O)c(-c3cc(C#N)ccc3F)c2n1 [Example 65] | 15 to 150 | 100 to 500
17 | Cc1nc(N[C@H](C)c2cc(N)cc(C(F)(F)F)c2)c2cn(N3CCOCC3)c(=O)cc2n1 [Example 16, 4-[[(1R)-1-[3-amino-5-(trifluoromethyl)phenyl]ethyl]amino]-2-methyl-6-morpholino-pyrido[4,3-d]pyrimidin-7-one] | 15 to 150 | 100 to 500
18 | Cc1nc(N[C@H](C)c2cccc(C(F)F)c2F)c2cn(N3CCCC3=O)c(=O)cc2n1 [Example 38] | ≤ 15 | 500 to 1000
19 | Cc1nc(N[C@H](C)c2cccc(C(F)F)c2F)c2cn(N3CCC(F)(F)CC3)c(=O)cc2n1 [Example 3] | ≤ 15 | 100 to 500
20 | Cc1nc(N[C@H](C)c2cccc(C(F)(F)CO)c2)c2cn(N3CCOCC3)c(=O)c(-c3ccc(C#N)nc3)c2n1 [Example 82] | ≤ 15 | 

Row | Structure (SMILES) | IC50 (SOS1 and KRAS G12D) [nM] | IC50 (NCI-H358) [nM]
21 | Cc1nc(NC(C)C2CC2)c2cn(N3CCOCC3)c(=O)cc2n1 (centres unmarked) [Example 23] | > 1000 | 
22 | Cc1nc(N[C@H](C)c2cc(N)cc(C(F)(F)F)c2)c2cn(N3CCOCC3)c(=O)c(-c3ccc(C#N)nc3)c2n1 [Example 83] | ≤ 15 | 
23 | Cc1nc(N[C@H](C)c2cccc(C(F)F)c2F)c2cn(N3CCCOCC3)c(=O)cc2n1 [Example 6] | ≤ 15 | ≤ 100
24 | Cc1nc(N[C@H](C)c2cccc(C(F)F)c2F)c2cn(N3CCOCC3)c(=O)c(Br)c2n1 [Example 40, 8-bromo-4-[[(1R)-1-[3-(difluoromethyl)-2-fluoro-phenyl]ethyl]amino]-2-methyl-6-morpholino-pyrido[4,3-d]pyrimidin-7-one] | ≤ 15 | ≤ 100
25 | Cc1nc(N[C@H](C)c2cccc(C(F)(F)F)c2C)c2cn(N3CCOCC3)c(=O)c(-c3ccc(C#N)nc3)c2n1 [Example 76] | 15 to 150 | 100 to 500
26 | Cc1nc(N[C@H](C)c2cccc(C(F)F)c2F)c2cn(N3CCOCC3)c(=O)c(-c3ccc(C(=O)O)nc3)c2n1 [Example 78] | ≤ 15 | 
27 | Cc1nc(N[C@H](C)c2cccc(C(F)F)c2F)c2cn(N3CCOCC3)c(=O)c(-c3ccc4nncn4c3)c2n1 [Example 72] | ≤ 15 | 100 to 500
28 | Cc1nc(N[C@H](C)c2cccc(C(F)F)c2F)c2cn(N3CCOCC3)c(=O)c(C3=CCS(=O)(=O)CC3)c2n1 [Example 85] | ≤ 15 | 
29 | Cc1ccc(-c2c(=O)n(N3CCOCC3)cc3c(N[C@H](C)c4cccc(C(F)F)c4F)nc(C)nc23)cn1 [Example 59] | ≤ 15 | ≤ 100
30 | Cc1nc(N[C@H](C)c2cccc(C(F)F)c2C)c2cn(N3CCOCC3)c(=O)cc2n1 [Example 21] | ≤ 15 | ≤ 100
31 | Cc1nc(NCc2ccc3cc[nH]c3c2)c2cn(N3CCOCC3)c(=O)cc2n1 [Example 27] | > 1000 | 
32 | Cc1nc(N[C@H](C)c2cccc(C(F)F)c2F)c2cn(N3CCOCC3)c(=O)c(-c3ccc(F)c(C#N)c3)c2n1 [Example 63] | 15 to 150 | 500 to 1000
33 | Cc1nc(N[C@H](C)c2cccc(C(F)(F)F)c2)c2cn(N3CCOCC3)c(=O)c(F)c2n1 [Example 33] | ≤ 15 | 100 to 500
34 | Cc1nc(N[C@H](C)c2cccc(C(F)F)c2F)c2cn(N3CCN(C(C)C)CC3)c(=O)cc2n1 [Example 12, 4-[[(1R)-1-[3-(difluoromethyl)-2-fluoro-phenyl]ethyl]amino]-6-(4-isopropylpiperazin-1-yl)-2-methyl-pyrido[4,3-d]pyrimidin-7-one] | ≤ 15 | 100 to 500
35 | Cc1nc(NC(C)c2cc(C(F)F)cc(C(F)F)c2)c2cn(N3CCOCC3)c(=O)cc2n1 (centres unmarked) [Example 28] | 150 to 1000 | 
36 | Cc1nc(N[C@H](C)c2cccc(C(F)F)c2F)c2cn(N3CCOCC3)c(=O)c(-c3ccc(C(N)=O)nc3)c2n1 [Example 80] | ≤ 15 | 
37 | COC(=O)c1ccc(-c2c(=O)n(N3CCOCC3)cc3c(N[C@H](C)c4cccc(C(F)F)c4F)nc(C)nc23)cn1 [Example 79] | ≤ 15 | 
38 | Cc1nc(N[C@H](C)c2cccc(C(F)F)c2F)c2cn(N3CCOCC3)c(=O)c(-c3ccn[nH]3)c2n1 [Example 81] | ≤ 15 | 
39 | Cc1nc(NCc2cccc(C(F)(F)F)c2)c2cn(N3CCOCC3)c(=O)cc2n1 [Example 26] | 15 to 150 | 
